Experimental data: patent US11882828B2, “Mosquito vector control compositions, methods and products utilizing same” (priority 2015, dated 2024)

Legend:
[1] = test system: Aedes aegypti; assay: Example B7: evaluation of insecticide impregnated polymer surfaces; assay type: in vivo; conditions: AI content 2 wt %, polymer 4 to 6 weeks old; for knock-down: after one hour; for mortality: 24 hours after exposure
From the text: (§1) Preparation of polymeric sheets: Certain methoxyacrylate were Impregnated into three polymers: LDPE (low density polyethylene), HDPE (high density polyethylene) and PP (polypropylene) in different concentrations by mixing the respective polymer with a compound at high temperatures and the resultant polymeric material were then mould into thin discs or plaques.
(§2) Twenty four hours prior to the relevant assessment intervals, three to five day old non-blood fed adult mosquitoes were taken from the culture and lightly anaesthetised with carbon dioxide. Ten females were selected and placed in a 250 ml plastic cup, retained with a net lid, provided with a 10% sucrose solution soaked in a cotton wool bung and held under culturing environmental conditions.
(§3) After twenty four hours, impregnated polymer sheets (measuring about 150 mm in diameter and about 0.1 mm in thickness) were removed from storage and wrapped around the glazed side of an 11 cm ceramic tile and held in place with an elastic band. A cup of the pre-selected mosquitoes were again lightly anaesthetised with carbon dioxide and transferred from the holding cup to the base of a 9 cm plastic Petri dish. The relevant impregnated polymer sheet was placed over the Petri dish and held in place with an elastic band. Once the mosquitoes had recovered from the anaesthetic, ca. 1 minute, the impregnated polymer sheet was placed on a holding rack, such that treated side was at an angle of […] to the horizontal.
(§4) After one hour an assessment of mosquito knockdown was made. A mosquito was said to be knocked down if it was unable to right itself once it had fallen over. The mosquitoes were lightly anaesthetised again, and removed from the Petri dish exposure chamber and returned to the holding cups. The mosquitoes were supplied with a 10% sucrose solution soaked in a cotton wool bung and held under culturing environmental conditions. An assessment of mortality was made 24 hours after exposure. A mosquito was said to be dead if it is unable to right itself once it had fallen over.

[2] = test system: Anopheles stephensi; assay: as above; assay type: in vivo; conditions: AI content 2 wt %; for knock-down: after one hour; for mortality: 24 hours after exposure
From the text: as §1, §2, §3, §4

[3] = test system: Aedes aegypti (Yellow fever mosquito); assay: whole plant or invertebrate; conditions: Aedes aegypti
Description: […] Once the deposits were dry, five non-blood fed adult female Aedes aegypti (between two to five days old) were added to each well, and sustained with a 10% sucrose solution in a cotton wool plug. Assessment of the knockdown after 1 hour, and mortality after 48 hours was carried out.
(§5) In case of multiple tests, the mean value is reported.

[4] = test system: Anopheles stephensi (Indian malaria mosquito); assay: whole plant or invertebrate; conditions: Anopheles stephensi
Description: […] Once the deposits were dry, five non-blood fed adult female Anopheles stephensi (between two to five days old) were added to each well, and sustained with a 10% sucrose solution in a cotton wool plug. Assessment of the knockdown after 1 hour, and mortality after 48 hours was carried out.
as §5

[5] = test system: Aedes aegypti; assay: whole plant or invertebrate; conditions: Aedes aegypti, 48 h
Method in brief: (§6)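 Non-blood-fed adult females (2–5 days old), ten per well, were placed on dried ethanol deposits of the test compound at a defined concentration and fed 10% sucrose. Mortality was scored at 48 hours as the mean of two replicates.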

[6] = test system: Anopheles stephensi; assay: whole plant or invertebrate; conditions: Anopheles stephensi, 48 h
Method in brief: as §6

[7] = test system: An. Gambiae Tiassalé; assay: Example B5: bottle based cross resistance study (CDC bottle assay); assay type: in vivo; conditions: for Knockdown (%) at 15 mins / Knockdown (%) at 60 mins: 20 ppm, bottle, Tiassalé; for mortality at 20 ppm: Anopheles gambiae
Description: (§7) Based on the “CDC bottle assay” (described at http://www.cdc.gov/malaria/resources/pdf/fsp/ir_manual/ir_cdc_bioassay_en.pdf) 1 ml of ethanol containing a test compound at a defined concentration was added to a 250 ml glass bottle and the bottles were placed on a rolling table to coat the inner surfaces as the solvent evaporated. Once dry, twenty five non-blood fed adult female mosquitoes of the appropriate species and strains (each three day old) were aspirated from the stock culture and gently blown into the exposure bottles. The lid of the bottle was replaced and the bottle placed upright out of direct sun light under standard culture conditions, nominally 28C and 60-80% relative humidity.
(§8) A stopwatch was started, and the assessment of the knock-down were made after 15 minutes and 60 minutes. A mosquito was said to be knocked down if it was unable to stand, following the CDC definition. The bottles were replaced in an upright position when not being assessed.
(§9) After one hour the mosquitoes were carefully removed from the bottle with an aspirator and placed in a recovery cup. The mosquitoes were supplied with a 10% sucrose solution on a cotton wool bung, and stored under culture conditions. Assessments of the mortality were made after 24 hours.
(§10) Each treatment was replicated a minimum of four times, with the mean knockdown or mortality recorded. In each study, a set of bottles was infested with a known insecticide susceptible strain of mosquitoes from the same genera as the resistant strains.

[8] = test system: An. stephensi; assay: as above; assay type: in vivo; conditions: for Knockdown (%) at 15 mins / Knockdown (%) at 60 mins: 20 ppm, bottle, An. stephensi; for mortality at 20 ppm: Anopheles stephensi
Description: as §7, §8, §9, §10

[9] = test system: An. Gambiae Kisumu sus; assay: as above; assay type: in vivo; conditions: for mortality at 20 ppm / mortality at 25 ppm: Anopheles gambiae; for mortality at 25 ppm: 24 h
Description: as §7, §8, §9, §10

[10] = test system: An. Gambiae Kisumu rdl; assay: Example B4: cross resistance study, 6-well plate; assay type: in vivo; conditions: for Knockdown: after 60 minutes, Kisumu rdl
Description: (§11) In each study, a set of plates were infested with a known insecticide susceptible strain of mosquitoes from the same genera as the resistant strains.
(§12) Assessment of the knockdown after 60 minutes and mortality after 24 hours was carried out. Each treatment was replicated a minimum of four times, with the mean knockdown or mortality recorded.
(§13) A comparison of the knockdown and mortality of the resistant strain of mosquitoes was made to that of the susceptible to identify evidence of cross resistance.

[11] = test system: An. Gambiae Tiassalé; assay: Example B4: cross resistance study, 6-well plate; assay type: in vivo; conditions: for Knockdown: after 60 minutes, Tiassalé
Description: as §11, §12, §13

[12] = test system: An. Arabiensis Moz sus; assay: Example B4: cross resistance study, 6-well plate; assay type: in vivo; conditions: for Knockdown: after 60 minutes, Moz sus
Description: as §11, §12, §13

[13] = test system: An. stephensi; assay: Example B4: cross resistance study, 6-well plate; assay type: in vivo; conditions: for Knockdown: after 60 minutes, An. stephensi
Description: as §11, §12, §13

[14] = test system: An. Arabiensis Ndjamina; assay: Example B4: cross resistance study, 6-well plate; assay type: in vivo
Description: as §11, §12, §13

[15] = test system: An. Gambiae Kisumu sus; assay: Example B4: cross resistance study, 6-well plate; assay type: in vivo; conditions: for Knockdown: after 60 minutes, Kisumu sus
Description: as §11, §12, §13

[16] = test system: Ae. Aegypti New Orleans; assay: Example B4: cross resistance study, 6-well plate; assay type: in vivo; conditions: for Knockdown: after 60 minutes, New Orleans
Description: as §11, §12, §13

[17] = test system: Ae. aegypti Caymon; assay: Example B4: cross resistance study, 6-well plate; assay type: in vivo; conditions: for Knockdown: after 60 minutes, Caymon
Description: as §11, §12, §13

[18] = test system: FUMOZ; assay: Example B5: bottle based cross resistance study (CDC bottle assay); assay type: in vivo; conditions: Anopheles funestus, 24 h, 25 ppm, after 24 hours, FUMOZ
Description: as §7, §8, §9, §10

[19] = test system: VK7; assay: as above; assay type: in vivo; conditions: Anopheles coluzzii, 24 h, after 24 hours
Description: as §7, §8, §9, §10

CO/C=C(/C(=O)OC)c1ccccc1Oc1nnc(C(F)(F)F)s1 [Compound 6, Methyl (E)-3-methoxy-2-[2-[[5-(trifluoromethyl)-1,3,4-thiadiazol-2-yl]oxy]phenyl]-prop-2-enoate]
knock-down ([1]; HDPE): 87%
knock-down ([1]; LDPE): 100%
knock-down ([1]; PP): 83%
knock-down ([2]; HDPE, polymer 4 to 6 weeks old): 87%
knock-down ([2]; HDPE, polymer 6 to 8 weeks old): 100%
knock-down ([2]; LDPE, polymer 4 to 6 weeks old): 97%
knock-down ([2]; LDPE, polymer 6 to 8 weeks old): 100%
knock-down ([2]; PP, polymer 4 to 6 weeks old): 100%
knock-down ([2]; PP, polymer 6 to 8 weeks old): 90%
pest or weed control at 20 ppm ([3]; 1 h, read-out: Knockdown): 100%
mortality at 20 ppm ([3]; 48 h): 100%
pest or weed control at 20 ppm ([4]; 1 h, read-out: Knockdown): 100%
mortality at 20 ppm ([4]; 48 h): 100%
mortality at 5 ppm [5]: 66%
mortality at 5 ppm [6]: 98%
Knockdown (%) at 15 mins [7]: 93%
Knockdown (%) at 60 mins [7]: 98%
mortality at 20 ppm [7]: 91%
Knockdown (%) at 15 mins [8]: 83%
Knockdown (%) at 60 mins [8]: 100%
mortality at 20 ppm [8]: 100%
Knockdown (%) at 15 mins ([9]; 20 ppm, bottle, Kisumu sus): 100%
Knockdown (%) at 60 mins ([9]; 20 ppm, bottle, Kisumu sus): 100%
mortality at 20 ppm [9]: 100%
Knockdown ([10]; 2.00 ppm): 78%
mortality at 2 ppm ([10]; Anopheles gambiae, 24 h): 89%
Knockdown ([11]; 2.00 ppm): 84%
mortality at 2 ppm ([11]; Anopheles gambiae, 24 h): 94%
Knockdown ([12]; 2.00 ppm): 90%
mortality at 2 ppm ([12]; Anopheles arabiensis, 24 h): 100%
Knockdown ([13]; 2.00 ppm): 100%
mortality at 2 ppm ([13]; Anopheles stephensi, 24 h): 100%
Knockdown ([14]; 2.00 ppm, after 60 minutes, Ndjamina): 100%
mortality at 2 ppm ([14]; Anopheles arabiensis, 24 h): 100%
Knockdown ([15]; 2.00 ppm): 86%
mortality at 2 ppm ([15]; Anopheles gambiae, 24 h): 100%
Knockdown ([16]; 2.00 ppm): 95%
mortality at 2 ppm ([16]; Aedes aegypti, 24 h): 100%
Knockdown ([17]; 2.00 ppm): 5%
mortality at 2 ppm ([17]; Aedes aegypti, 24 h): 63%

CC1(C)C(C=C(Cl)Cl)C1C(=O)OCc1cccc(Oc2ccccc2)c1 (stereo not drawn) [Permethrin, reference compound]
mortality ([1]; HDPE): 97%
knock-down ([1]; HDPE): 100%
mortality ([1]; LDPE): 100%
knock-down ([1]; LDPE): 100%
mortality ([1]; PP): 80%
knock-down ([1]; PP): 87%
mortality ([2]; HDPE, polymer 4 to 6 weeks old): 70%
knock-down ([2]; HDPE, polymer 4 to 6 weeks old): 100%
mortality ([2]; HDPE, polymer 6 to 8 weeks old): 97%
knock-down ([2]; HDPE, polymer 6 to 8 weeks old): 100%
mortality ([2]; LDPE, polymer 4 to 6 weeks old): 100%
knock-down ([2]; LDPE, polymer 4 to 6 weeks old): 100%
mortality ([2]; LDPE, polymer 6 to 8 weeks old): 100%
knock-down ([2]; LDPE, polymer 6 to 8 weeks old): 100%
mortality ([2]; PP, polymer 4 to 6 weeks old): 23%
knock-down ([2]; PP, polymer 4 to 6 weeks old): 100%
mortality ([2]; PP, polymer 6 to 8 weeks old): 67%
knock-down ([2]; PP, polymer 6 to 8 weeks old): 100%
Knockdown (%) at 15 mins [7]: 50%
Knockdown (%) at 60 mins [7]: 99%
mortality at 20 ppm [7]: 85%
mortality at 25 ppm ([18]; Table B5b): 24%
mortality at 25 ppm ([18]; Table B5c): 46%
Knockdown (%) at 15 mins [8]: 97%
Knockdown (%) at 60 mins [8]: 100%
mortality at 20 ppm [8]: 100%
Knockdown (%) at 15 mins ([9]; 20 ppm, bottle, Kisumu sus): 100%
Knockdown (%) at 60 mins ([9]; 20 ppm, bottle, Kisumu sus): 100%
mortality at 20 ppm ([9]; 20 ppm, bottle, one hour exposure, after 24 hours, Kisumu sus): 100%
mortality at 25 ppm ([9]; Table B5b, after 24 hours, Kisumu sus): 99%
mortality at 25 ppm ([9]; Table B5c, after 24 hours, Kisumu sus): 100%
mortality at 25 ppm ([19]; Table B5b): 3%
mortality at 25 ppm ([19]; Table B5c): 4%
Knockdown ([10]; 2.50 ppm): 100%
mortality at 2.5 ppm ([10]; Anopheles gambiae, 24 h): 100%
Knockdown ([11]; 2.50 ppm): 5%
mortality at 2.5 ppm ([11]; Anopheles gambiae, 24 h): 14%
Knockdown ([12]; 2.50 ppm): 75%
mortality at 2.5 ppm ([12]; Anopheles arabiensis, 24 h): 100%
Knockdown ([13]; 2.50 ppm): 85%
mortality at 2.5 ppm ([13]; Anopheles stephensi, 24 h): 100%
Knockdown ([15]; 2.50 ppm): 100%
mortality at 2.5 ppm ([15]; Anopheles gambiae, 24 h): 100%
Knockdown ([16]; 2.50 ppm): 91%
mortality at 2.5 ppm ([16]; Aedes aegypti, 24 h): 100%
Knockdown ([17]; 2.50 ppm): 0%
mortality at 2.5 ppm ([17]; Aedes aegypti, 24 h): 45%
